According to patent publication US11214578B2, “Urea/carbamates FAAH MAGL or dual FAAH/MAGL inhibitors and uses thereof” (Northeastern University, priority 2014, dated 2022):
Where two headings read alike, the source gives them in different places.

Assays:
Type in all cases: biochemical
Human FAAH (MBPΔTMhFAAH) = biological target: T1, Human FAAH (MBPΔTMhFAAH) (Homo sapiens, UniProt O00519); experiment: Fluorescent assay protocol for hFAAH; conditions: human FAAH (MBP fusion, ΔTM), procedure as for rFAAH
T1 construct: made in house; host or cells: E. coli (pMALcE4 vector)
T1 sequence (O00519 30-579 limits assumed): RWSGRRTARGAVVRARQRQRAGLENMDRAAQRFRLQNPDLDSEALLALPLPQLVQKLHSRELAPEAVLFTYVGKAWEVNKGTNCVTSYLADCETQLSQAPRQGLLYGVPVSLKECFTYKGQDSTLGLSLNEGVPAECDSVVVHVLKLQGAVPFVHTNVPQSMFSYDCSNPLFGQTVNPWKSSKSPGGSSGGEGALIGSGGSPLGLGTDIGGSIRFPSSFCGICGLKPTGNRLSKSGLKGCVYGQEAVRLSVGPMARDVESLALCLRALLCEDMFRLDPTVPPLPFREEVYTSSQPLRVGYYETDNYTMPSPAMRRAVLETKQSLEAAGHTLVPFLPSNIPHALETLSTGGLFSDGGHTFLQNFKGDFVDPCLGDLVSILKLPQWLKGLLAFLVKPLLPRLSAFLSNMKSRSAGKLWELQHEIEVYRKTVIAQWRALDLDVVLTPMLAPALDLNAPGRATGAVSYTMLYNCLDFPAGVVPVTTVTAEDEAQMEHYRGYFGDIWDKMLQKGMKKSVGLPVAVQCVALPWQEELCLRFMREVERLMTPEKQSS
In short: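 MBP-fused ΔTM human FAAH from E. coli, pre-incubated 15 min at 25 °C with compound in 50 mM HEPES, 1 mM EDTA, 0.1% BSA, pH 7.4 (DMSO below 8%). Substrate AAMCA 20 μM (2×Km); fluorescence (ex 360/em 460) at 3 h gave % inhibition vs uninhibited control, triplicate, IC50 fitted.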

Human MAGL (hMAGL) = biological target: T2, Human MAGL (hMAGL) (Homo sapiens, UniProt Q99685); experiment: Fluorescent assay protocol for hMAGL (AHMMCE substrate)
T2 construct: hexahistidine; made in house; host or cells: E. coli
T2 sequence (Q99685 1-303): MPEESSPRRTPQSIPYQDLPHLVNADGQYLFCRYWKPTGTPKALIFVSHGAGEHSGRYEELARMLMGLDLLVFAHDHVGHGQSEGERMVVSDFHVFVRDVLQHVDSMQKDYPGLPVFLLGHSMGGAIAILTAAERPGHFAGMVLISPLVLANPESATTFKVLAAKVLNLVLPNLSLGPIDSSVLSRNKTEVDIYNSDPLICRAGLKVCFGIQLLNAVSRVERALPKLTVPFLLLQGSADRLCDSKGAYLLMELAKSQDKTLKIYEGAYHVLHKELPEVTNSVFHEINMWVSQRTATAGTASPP
In short: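 Hydrolysis of AHMMCE by human MAGL was monitored at 25°C for 120 min, with fluorescence at 360/460 nm recorded every 15 min and converted to 4-methylcoumarin using external standards. IC50 values were derived from triplicate wells at each inhibitor concentration.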

ΔTM rat FAAH = biological target: T3, ΔTM rat FAAH (Rattus norvegicus, UniProt P97612); experiment: Fluorescent assay protocol for ΔTM rat FAAH (AAMCA substrate); conditions: 15 min preincubation, read-out: IC50 rFAAH
T3 construct: Preparation of Transmembrane Domain-Deleted Rat FAAH (ΔTM rFAAH); made in house; host or cells: E. coli
T3 sequence (P97612 30-579 limits assumed): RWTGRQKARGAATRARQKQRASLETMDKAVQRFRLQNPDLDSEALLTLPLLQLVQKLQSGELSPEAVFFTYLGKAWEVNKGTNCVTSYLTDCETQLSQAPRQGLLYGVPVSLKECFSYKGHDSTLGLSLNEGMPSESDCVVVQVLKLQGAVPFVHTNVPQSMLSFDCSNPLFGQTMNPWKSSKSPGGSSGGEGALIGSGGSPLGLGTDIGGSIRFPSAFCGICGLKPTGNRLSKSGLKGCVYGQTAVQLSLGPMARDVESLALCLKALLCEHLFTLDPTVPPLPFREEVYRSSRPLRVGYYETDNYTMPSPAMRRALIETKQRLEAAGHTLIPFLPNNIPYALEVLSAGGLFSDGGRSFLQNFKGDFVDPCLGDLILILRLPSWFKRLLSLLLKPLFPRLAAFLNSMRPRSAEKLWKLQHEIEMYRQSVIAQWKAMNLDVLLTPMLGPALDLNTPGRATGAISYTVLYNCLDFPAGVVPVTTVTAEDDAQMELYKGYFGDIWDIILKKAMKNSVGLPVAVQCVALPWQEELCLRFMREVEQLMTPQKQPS
In short: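 ΔTM rat FAAH (15 μg) was pre-incubated 15 min at 25° C with compound (screening at 1, 10 and 100 μM), then reacted with the fluorigenic substrate AAMCA. Percent inhibition came from fluorescence at 3 h (linear kinetics) relative to no-inhibitor controls, in triplicate.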

Rat MAGL (rMAGL) = biological target: T4, Rat MAGL (rMAGL) (Rattus norvegicus, UniProt Q8R431); experiment: Fluorescent assay protocol for rMAGL
T4 construct: made in house; host or cells: E. coli
T4 sequence (Q8R431 1-303): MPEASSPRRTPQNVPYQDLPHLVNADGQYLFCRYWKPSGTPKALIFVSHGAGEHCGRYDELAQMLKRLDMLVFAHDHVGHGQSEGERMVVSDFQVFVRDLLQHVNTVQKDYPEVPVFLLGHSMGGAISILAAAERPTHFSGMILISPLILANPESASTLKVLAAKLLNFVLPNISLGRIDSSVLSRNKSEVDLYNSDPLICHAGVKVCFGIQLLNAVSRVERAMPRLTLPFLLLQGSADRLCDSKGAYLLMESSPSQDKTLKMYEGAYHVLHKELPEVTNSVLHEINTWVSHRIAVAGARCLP
In short: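 Rat MAGL run as for the human enzyme: AHMMCE substrate hydrolysis to fluorescent coumarin followed at 25° C. for 120 min, read every 15 min at 360/460 nm.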

[1] = recombinant human MAGL, AHMMCE substrate, 15 min preincubation, read-out: IC50 hMAGL
[2] = recombinant rat MAGL, procedure as for hMAGL, read-out: IC50 rMAGL

SMILES	IC50 (Human FAAH (MBPΔTMhFAAH))	IC50 (Human MAGL (hMAGL); [1])	IC50 (ΔTM rat FAAH)	IC50 (Rat MAGL (rMAGL); [2])	IC50 (Human MAGL (hMAGL))	IC50 (Rat MAGL (rMAGL))
COc1cccc(OC(=O)N2CC(OCc3ccc(Br)cc3)C2)c1 [Example 78, 3-Methoxyphenyl 3-(4-Bromobenzyloxy)azetidine-1-carboxylate]	10 to 100 nM	> 1000 nM	10 to 100 nM	> 1000 nM		
O=C(Oc1ccc(Cl)cc1Cl)N1CC(OCc2ccc(Cl)cc2)C1 [Example 79, 2,4-Dichlorophenyl 3-(4-chlorobenzyloxy)azetidine-1-carboxylate]	10 to 100 nM		10 to 100 nM		110 to 1000 nM	110 to 1000 nM
O=C(Oc1cccc(-c2cccnc2)c1)N1CC(OCc2ccc(Cl)cc2)C1 [Example 80, 3-(Pyridin-3-yl)phenyl 3-(4-chlorobenzyloxy)azetidine-1-carboxylate]	10 to 100 nM	> 1000 nM	10 to 100 nM	> 1000 nM		
O=C(Nc1ccccc1)N1CC(OCc2ccc(Cl)cc2)C1 [Example 81, 3-(4-Chlorobenzyloxy)-N-phenylazetidine-1-carboxamide]	110 to 1000 nM	> 1000 nM	110 to 1000 nM	> 1000 nM		
O=C(Nc1cccnc1)N1CC(OCc2ccc(Br)cc2)C1 [Example 82, 3-(4-Bromobenzyloxy)-N-(pyridin-3-yl)azetidine-1-carboxamide]	110 to 1000 nM	> 1000 nM	110 to 1000 nM	> 1000 nM		
O=C(N1CC(N2CCC(c3ccccc3)CC2)C1)n1cnc2ccccc21 [Example 83, (1H-Benzo[d]imidazol-1-yl)(3-(4-phenylpiperidin-1-yl)azetidin-1-yl)methanone]	10 to 100 nM	> 1000 nM	10 to 100 nM	> 1000 nM		
O=C(N1CC(N2CCC(Cc3ccccc3)CC2)C1)n1cnc(-c2ccccc2)c1 [Example 84, (3-(4-Benzylpiperidine)azetidin-1-yl)(4-phenyl[1H]imizadol-1-yl)methanone]	10 to 100 nM	> 1000 nM	10 to 100 nM	> 1000 nM		
O=C(N1CC(N2CCC(c3ccccc3)CC2)C1)n1cnc(-c2ccccc2)c1 [Example 85, (4-Phenyl-1H-imidazol-1-yl)(3-(4-phenylpiperidin-1-yl)azetidin-1-yl)methanone]	10 to 100 nM	> 1000 nM	10 to 100 nM	> 1000 nM		
O=C(N1CC(OCc2ccc(Br)cc2)C1)n1cnc(-c2ccccc2)c1 [Example 86, (3-(4-Bromobenzyloxy)azetidin-1-yl)(4-phenyl-1H-imidazol-1-yl)methanone]	10 to 100 nM	> 1000 nM	10 to 100 nM	> 1000 nM		
O=C(N1CC(OCc2ccc(Br)cc2)C1)n1cnc2ccccc21 [Example 87, (1H-Benzo[d]imidazol-1-yl)(3-(4-Bromobenzyloxy)azetidin-1-yl)methanone]	10 to 100 nM	10 to 100 nM	10 to 100 nM	10 to 100 nM		
O=C(N1CCCCC1)N1CC(OCc2ccc(Br)cc2)C1 [Example 88]	10 to 100 nM	10 to 100 nM	10 to 100 nM	10 to 100 nM		
O=C(N1CC(N2CCC(c3ccccc3)CC2)C1)n1cccn1 [Example 89, (3-(4-Phenylpiperidin-1-yl)azetidin-1-yl)(1H-pyrazol-1-yl)methanone]	10 to 100 nM	10 to 100 nM	10 to 100 nM	10 to 100 nM		
O=C(N1CC(N2CCC(c3ccccc3)CC2)C1)n1cncn1 [Example 90]	10 to 100 nM	10 to 100 nM	10 to 100 nM	10 to 100 nM		
O=C(N1CC(Sc2ccc(Br)cc2)C1)n1cncn1 [Example 91]	10 to 100 nM	10 to 100 nM	10 to 100 nM	10 to 100 nM		
NC(=O)c1cccc(-c2cccc(NC(=O)N3C[C@@H]4C[C@H]3CN4Cc3ccc4ccccc4n3)c2)c1 [Example 92, (1S,4S)—N-(3′-carbamoyl-[1,1′-biphenyl]-3-yl)-5-(quinolin-2-ylmethyl)-2,5-diazabicyclo[2.2.1]heptane-2-carboxamide]	> 1000 nM	> 1000 nM	> 1000 nM	> 1000 nM		
N#Cc1cccc(-c2cccc(NC(=O)N3C[C@@H]4C[C@H]3CN4Cc3ccc4ccccc4n3)c2)c1 [Example 93, (1S,4S)—N-(3′-cyano-[1,1′-biphenyl]-3-yl)-5-(quinolin-2-ylmethyl)-2,5-diazabicyclo[2.2.1]heptane-2-carboxamide]	> 1000 nM	> 1000 nM	> 1000 nM	> 1000 nM		
N#Cc1cccc(-c2cccc(NC(=O)N3C[C@@H]4C[C@H]3CN4Cc3cccc(-c4ccccc4)c3)c2)c1 [Example 94, (1S,4S)-5-([1,1′-biphenyl]-3-ylmethyl)-N-(3′-cyano-[1,1′-biphenyl]-3-yl)-2,5-diazabicyclo[2.2.1]heptane-2-carboxamide]	110 to 1000 nM	> 1000 nM	110 to 1000 nM	> 1000 nM		
O=C(N1C[C@@H]2C[C@H]1CN2c1ccccn1)n1cnc(-c2ccccc2)c1 [Example 96, (4-phenyl-1H-imidazol-1-yl)((1S,4S)-5-(pyridin-2-yl)-2,5-diazabicyclo[2.2.1]heptan-2-yl)methanone]	10 to 100 nM	> 1000 nM	10 to 100 nM	> 1000 nM		
O=C(N1C[C@@H]2C[C@H]1CN2c1cccc(F)c1)n1cnc(-c2ccccc2)c1 [Example 97, ((1 S,4S)-5-(3-fluorophenyl)-2,5-diazabicyclo[2.2.1]heptan-2-yl)(4-phenyl-1H-imidazol-1-yl)methanone]	110 to 1000 nM	> 1000 nM	110 to 1000 nM	> 1000 nM		
O=C(N1C[C@@H]2C[C@H]1CN2Cc1cccc(-c2ccccc2)c1)n1cnc(-c2ccccc2)c1 [Example 99, ((1S,4S)-5-([1,1′-biphenyl]-3-ylmethyl)-2,5-diazabicyclo[2.2.1]heptan-2-yl)(4-phenyl-1H-imidazol-1-yl)methanone]	110 to 1000 nM	> 1000 nM	10 to 100 nM	> 1000 nM		
